Reference: patent US9309222B2, “Phenyl linked quinolinyl modulators of RORγt” (Janssen Pharmaceutica NV, priority 2012, dated 2016)
Where “and” joins values, the source holds several entries; their conditions need not be identical. Identical values can stand only once. Counter-ions that a name gives are not always drawn.

How the values were obtained:
[1] = molecular target: T1, human RORγt ligand binding domain (RORγt LBD) (Homo sapiens, UniProt P51449); test: RORγt ThermoFluor assay (thermal shift, ligand binding affinity); conditions: estimated from concentration response of thermal shift
T1 construct: His-tag (N); TurboTEV protease cleavage site (ENLYFQG) (N); made in house; host or cells: E. coli (pHIS1, modified pET vector)
T1 sequence (P51449 with tags, fused parts or gaps): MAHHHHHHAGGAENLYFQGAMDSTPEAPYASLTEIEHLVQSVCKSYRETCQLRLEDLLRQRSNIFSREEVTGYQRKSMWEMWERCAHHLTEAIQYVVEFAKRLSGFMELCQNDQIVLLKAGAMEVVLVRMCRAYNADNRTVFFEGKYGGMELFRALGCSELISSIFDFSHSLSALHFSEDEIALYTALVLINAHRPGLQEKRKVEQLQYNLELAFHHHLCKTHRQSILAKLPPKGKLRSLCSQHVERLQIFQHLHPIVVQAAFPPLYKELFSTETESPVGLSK
In short: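 Thermal shift of 0.065 mg/mL RORγt with 60 μM 1,8-ANS in 100 mM Hepes pH 7.0, 10 mM NaCl, 2.5 mM GSH, 0.002% Tween-20. Compounds in 1:2 series from 10 mM DMSO stock. Dye fluorescence (500 nm emission) tracked versus temperature; ΔTm used to derive KD.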

[2] = molecular target: T2, human RORγt LBD (Homo sapiens, UniProt P51449); test: RORγt reporter assay (GAL4-RORγt LBD luciferase in HEK293T cells); type: cell-based; conditions: for IC50: HEK293T cells, 24 hours compound treatment; for inhibition at 6 µM: HEK-293T, read-out: RORγt reporter Assay, % inhibition @ 6 μM, HEK293T cells, 6 μM compound
T2 construct: expressed in transfected cells
T2 sequence (P51449 258-518): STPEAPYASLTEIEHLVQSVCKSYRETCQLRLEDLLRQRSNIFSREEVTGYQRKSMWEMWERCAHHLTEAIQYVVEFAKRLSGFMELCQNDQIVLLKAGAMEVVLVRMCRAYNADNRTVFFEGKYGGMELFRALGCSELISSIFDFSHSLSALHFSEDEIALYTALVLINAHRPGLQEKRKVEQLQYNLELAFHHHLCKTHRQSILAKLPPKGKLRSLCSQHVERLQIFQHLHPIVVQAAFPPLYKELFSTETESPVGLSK
In short: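 HEK293T cells transiently co-transfected with pBIND (GAL4 DBD fused to wild-type human RORγt LBD, plus SV40-driven renilla luciferase) and pGL4.31 GAL4-responsive firefly luciferase reporter. Plated in phenol-red-free DMEM with 5% lipid-reduced FCS and treated with compound for 24 h. Firefly/renilla luminescence ratio plotted against compound concentration.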

In the case of `CN1CCCC(C(O)(c2cccnc2)c2ccc3nc(Cl)c(-c4ccccc4)c(Cl)c3c2)C1` (stereo not drawn) [Example 94, (2,4-Dichloro-3-phenylquinolin-6-yl)(1-methylpiperidin-3-yl)pyridin-3-ylmethanol•TFA], the Kd [1] is reported as 2400 nM, the IC50 [2] is reported as over 6000 nM and the inhibition at 6 µM [2] is reported as 43%.

`CCc1nc2ccc(C(O)(c3ccncc3)c3cncn3C)cc2c(CC)c1-c1ccccc1` (stereo not drawn) [Example 97, (2,4-Diethyl-3-phenylquinolin-6-yl)(1-methyl-1H-imidazol-5-yl)pyridin-4-ylmethanol•TFA] showed a Kd [1] of 53 nM, an IC50 [2] of 580 nM and an inhibition at 6 µM [2] of 100%.

`CCN(CC)c1c(-c2ccccc2)c(Cl)nc2ccc(C(O)(c3cccnc3)c3cccc(Cl)c3)cc12` (stereo not drawn) [Example 101, [2-Chloro-4-(diethylamino)-3-phenylquinolin-6-yl](3-chlorophenyl)pyridin-3-ylmethanol•TFA] gave a Kd [1] of 2500 nM, an IC50 [2] of 640 nM and an inhibition at 6 µM [2] of 94%.

Work on `CCN(CC)c1nc2ccc(C(O)(c3cccnc3)c3cccc(Cl)c3)cc2c(C)c1-c1ccccc1` (stereo not drawn) [Example 103, (3-Chlorophenyl)[2-(diethylamino)-4-methyl-3-phenylquinolin-6-yl]pyridin-3-ylmethanol•TFA] yielded a Kd [1] of 1400 nM, an IC50 [2] of 2200 nM and an inhibition at 6 µM [2] of 85%.

`CCN(CC)c1nc2ccc(C(O)(c3cccnc3)c3cccc(Cl)c3)cc2c(OC)c1-c1ccccc1` (stereo not drawn) [Example 106, (3-Chlorophenyl)[2-(diethylamino)-4-methoxy-3-phenylquinolin-6-yl]pyridin-3-ylmethanol•TFA] gave a Kd [1] of 1300 nM, an IC50 [2] of 2300 nM and an inhibition at 6 µM [2] of 75%.

For `CN(C)c1nc2ccc(C(O)(c3ccncc3)c3cncn3C)cc2c(O)c1-c1ccccc1` (stereo not drawn) [Example 108, 2-(Dimethylamino)-6-[hydroxy(1-methyl-1H-imidazol-5-yl)pyridin-4-ylmethyl]-3-phenylquinolin-4-ol•TFA], the Kd [1] was 330 nM, the IC50 [2] was 1100 nM and the inhibition at 6 µM [2] was 90%.

With `OC(c1ccc(C(F)(F)F)nc1)(c1cccc(Cl)c1)c1ccc2nc(Cl)c(-c3ccccc3)c(Cl)c2c1` (stereo not drawn) [Example 111, (3-Chlorophenyl)(2,4-dichloro-3-phenylquinolin-6-yl)(6-(trifluoromethyl)pyridin-3-yl)methanol] the Kd [1] was 640 nM, the IC50 [2] was 1000 nM and ~2000 nM and the inhibition at 6 µM [2] was 77%.

`N#Cc1nc2ccc(C(O)(c3ccc(C(F)(F)F)nc3)c3cccc(Cl)c3)cc2c(C#N)c1-c1ccccc1` (stereo not drawn) [Example 114, 6-{(3-Chlorophenyl)(hydroxy) [6-(trifluoromethyl)pyridin-3-yl]methyl}-3-phenylquinoline-2,4-dicarbonitrile] gave a Kd [1] of 610 nM, an IC50 [2] of 740 nM and an inhibition at 6 µM [2] of 104%.

`Cn1cncc1C(O)(c1ccc2nc(C(F)(F)F)c(-c3ccccc3)c(C#N)c2c1)c1ccccn1` (stereo not drawn) [Example 118, 6-(Hydroxy(1-methyl-1H-imidazol-5-yl)(pyridin-2-yl)methyl)-3-phenyl-2-(trifluoromethyl)quinoline-4-carbonitrile•TFA] was tested, and the Kd [1] was 360 nM, the IC50 [2] was 370 nM and the inhibition at 6 µM [2] was 94%.

`Cn1ccnc1C(O)(c1ccnnc1)c1ccc2nc(Cl)c(-c3ccccc3)c(Cl)c2c1` (stereo not drawn) [Example 121, (2,4-Dichloro-3-phenylquinolin-6-yl)(1-methyl-1H-imidazol-2-yl)(pyridazin-4-yl)methanol] was tested, and the Kd [1] was 1700 nM, the IC50 [2] was about 2000 nM and the inhibition at 6 µM [2] was 72%.

Molecule `Cn1ccnc1C(O)(c1ccc2nc(Cl)c(-c3ccccc3)c(Cl)c2c1)c1cnccn1` (stereo not drawn) [Example 123, (2,4-Dichloro-3-phenylquinolin-6-yl)(1-methyl-1H-imidazol-2-yl)(pyrazin-2-yl)methanol] has a Kd [1] of 2200 nM, an IC50 [2] of about 6000 nM and an inhibition at 6 µM [2] of 70%.

With `Cn1ccnc1C(O)(c1cncnc1)c1ccc2nc(Cl)c(-c3ccccc3)c(Cl)c2c1` (stereo not drawn) [Example 125, (2,4-Dichloro-3-phenylquinolin-6-yl)(1-methyl-1H-imidazol-2-yl)(pyrimidin-5-yl)methanol] the Kd [1] was 650 nM, the IC50 [2] was 1000 nM and the inhibition at 6 µM [2] was 66%.

`Cn1cncc1C(O)(c1ccnnc1)c1ccc2nc(Cl)c(-c3ccccc3)c(Cl)c2c1` (stereo not drawn) [Example 126, (2,4-Dichloro-3-phenylquinolin-6-yl)(1-methyl-1H-imidazol-5-yl)(pyridazin-4-yl)methanol] showed a Kd [1] of 21 nM, an IC50 [2] of 220 nM and an inhibition at 6 µM [2] of 97%.

In the case of `COC(c1ccc2nc(Cl)c(-c3ccccc3)c(Cl)c2c1)(c1cnccn1)c1cncn1C` (stereo not drawn) [Example 127, 2,4-Dichloro-6-(methoxy(1-methyl-1H-imidazol-5-yl)(pyrazin-2-yl)methyl)-3-phenylquinoline•TFA], the Kd [1] is reported as 990 nM, the IC50 [2] is reported as 1600 nM and the inhibition at 6 µM [2] is reported as 88%.

With `Cc1noc(C)c1C(O)(c1ccc(Cl)cc1)c1ccc2nc(Cl)c(-c3ccccc3)c(Cl)c2c1` (stereo not drawn) [Example 133, (4-Chlorophenyl)(2,4-dichloro-3-phenylquinolin-6-yl)(3,5-dimethylisoxazol-4-yl)methanol•TFA] the Kd [1] was 1500 nM, the IC50 [2] was over 6000 nM and the inhibition at 6 µM [2] was 41%.

In the case of `Cn1nncc1C(O)(c1ccc(Cl)cc1)c1ccc2nc(Cl)c(-c3ccccc3)c(Cl)c2c1` (stereo not drawn) [Example 144, (4-Chlorophenyl)(2,4-dichloro-3-phenylquinolin-6-yl)(1-methyl-1H-1,2,3-triazol-5-yl)methanol], the Kd [1] is reported as 260 nM, the IC50 [2] is reported as 520 nM and the inhibition at 6 µM [2] is reported as 102%.

With `Cc1nc2cc(C(O)(c3ccc4nc(Cl)c(-c5ccccc5)c(Cl)c4c3)c3cncn3C)ccc2o1` (stereo not drawn) [Example 146, (2,4-Dichloro-3-phenylquinolin-6-yl)(1-methyl-1H-imidazol-5-yl)(2-methylbenzo[d]oxazol-5-yl)methanol] the Kd [1] was 77 nM, the IC50 [2] was 130 nM and the inhibition at 6 µM [2] was 112%.

For `COCCCn1cncc1C(O)(c1ccc(Cl)cc1)c1ccc2nc(Cl)c(-c3ccccc3)c(Cl)c2c1` (stereo not drawn) [Example 147, (4-Chlorophenyl)(2,4-dichloro-3-phenylquinolin-6-yl)(1-(3-methoxypropyl)-1H-imidazol-5-yl)methanol], the Kd [1] was 1100 nM, the IC50 [2] was 1300 nM and the inhibition at 6 µM [2] was 97%.

For `OC(c1ccc(Cl)cc1)(c1cccnc1)c1ccc2nc(-c3cccnc3)c(-c3ccccc3)c(Cl)c2c1` (stereo not drawn) [Example 151, (4-Chloro-3-phenyl-2-(pyridin-3-yl)quinolin-6-yl)(4-chlorophenyl)(pyridin-3-yl)methanol], the Kd [1] was 5000 nM, the IC50 [2] was 2200 nM and the inhibition at 6 µM [2] was 85%.

Molecule `Cn1cncc1C(O)(c1ccncc1)c1cc(F)c2nc(Cl)c(-c3ccccc3)c(Cl)c2c1` (stereo not drawn) [Example 155, (2,4-Dichloro-8-fluoro-3-phenylquinolin-6-yl)(1-methyl-1H-imidazol-5-yl)(pyridin-4-yl)methanol•TFA] has a Kd [1] of 68 nM, an IC50 [2] of 110 nM and an inhibition at 6 µM [2] of 96%.

In the case of `Cc1ccc(C(O)(c2cc(C)c3nc(Cl)c(-c4ccccc4)c(Cl)c3c2)c2cncn2C)cn1` (stereo not drawn) [Example 156, (2,4-Dichloro-8-methyl-3-phenylquinolin-6-yl)(1-methyl-1H-imidazol-5-yl)(6-methylpyridin-3-yl)methanol•TFA], the Kd [1] is reported as 57 nM, the IC50 [2] is reported as 320 nM and the inhibition at 6 µM [2] is reported as 98%.

In the case of `Cn1cncc1C(O)(c1ccncc1)c1ccc2nc(Cl)c(-c3ccccc3)c(Cl)c2c1F` (stereo not drawn) [Example 162, (2,4-Dichloro-5-fluoro-3-phenylquinolin-6-yl)(1-methyl-1H-imidazol-5-yl)(pyridin-4-yl)methanol•TFA], the Kd [1] is reported as 200 nM, the IC50 [2] is reported as 910 nM and the inhibition at 6 µM [2] is reported as 92%.
